Assay results reported in PMC9220178, “Preclinical Characterization of Antioxidant Quinolyl Nitrone QN23 as a New Candidate for the Treatment of Ischemic Stroke” (Antioxidants, 2022).

Assays:
[1] = tested on: male Wistar rats, transient middle cerebral artery occlusion (tMCAO); test: Infarct and edema volume (TTC staining) in transient focal cerebral ischemia (tMCAO); format: in vivo, rat; details: 48 h after tMCAO
Description: For the transient focal cerebral ischemia experimental model we used 12-week-old male Wistar rats (300–350 g, Charles River), housed under standard conditions with food and water ad libitum. The animals were anesthetized by an intraperitoneal injection of a mixture of 100 mg/kg ketamine, 5 mg/kg diazepam, and 0.3 mg/kg atropine. Anesthesia was maintained during the surgical procedure by inhalation of 1–1.5% sevoflurane in 80% medicinal air plus 20% O2. For the transient occlusion of the right middle cerebral artery (tMCAO, 60 min), we followed the intraluminal suture procedure as originally described, adapted to our experimental setup. The procedure included continuous monitoring of cortical perfusion (CP, by Laser-Doppler flowmetry), arterial blood pressure, and core temperature, and discontinuous measurement of glycemia levels during preischemia (basal), ischemia, and reperfusion stages. Buprenorphine (subcutaneous, 0.05 mg/kg) was used as an analgesic. Forty-eight hours after the ischemic insult, the animals were euthanized by intracardiac injection of potassium chloride (200 mg/kg) under deep anesthesia, and the brains were obtained.
A power analysis (see above) provided a sample size of 6 subjects per group. A total of 35 animals was used in this study. […]
Brain infarct volume was determined by the 2,3,5-triphenyltetrazolium chloride (TTC; Sigma-Aldrich, Merck KGaA, Darmstadt, Germany) vital staining method, followed by morphometric analysis by a researcher blind to the treatment allocation. […] In order to correct for the influence of edema, the infarcted area was calculated as follows: corrected infarct area = infarct area × (contralateral hemisphere area / ipsilateral hemisphere area). The corrected infarct area was measured on both the anterior and the posterior sides of each slice and averaged; the corrected infarct volume was calculated by multiplying the average corrected infarct area by the thickness of the slice (2 mm), and the total corrected infarct volume by adding up the corrected infarct volume of the seven slices. […]

[2] = tested on: experimental cerebral ischemia; set-up: method as in PMID 30715875; details: 1.5 mg/kg intraperitoneally; cited from earlier work
[3] = tested on: adult male Wistar rats, four-vessel occlusion (4VO) transient forebrain ischemia; test: Long-term behavioral tests in the Y maze; format: in vivo, rat; details: 2.0 mg/kg i.v. at reperfusion onset, 11 weeks after ischemia
Description: Long-term assessment of neurological damage after the ischemic episode was performed by the evaluation of the spontaneous exploratory activity (spatial recognition) and spatial memory skills in the Y maze.
For the assessment of the exploratory activity and spatial recognition, control animals and ischemic animals treated with vehicle, QN23, or NXY-059 were placed in the center of the maze and allowed free exploration for 8 min. An independent researcher blind to the treatment allocation registered the total number of arms that the animal entered indistinctly (arm entries), and the times that the animal explored the three different arms of the maze consecutively (alternations or triads).
For the assessment of spatial memory, experiments consisted of two trials. For the first trial (training), control and ischemic animals treated with vehicle or QN23 were placed into one of the arms (start arm) and allowed to explore the Y maze for 10 min with one of the arms closed. One hour after the training trial, the animals were returned to the Y maze and the second trial was conducted. The animals were placed in the same start arm as in the training trial, but now with the remaining two arms of the maze available for exploration for 3 min. A researcher blind to the treatment allocation registered the first choice of arm for entry (novel or old).

COc1ccc2nc(Cl)c(/C=[N+](\[O-])C(C)(C)C)cc2c1 [QN23, (Z)-N-tert-Butyl-1-(2-chloro-6-methoxyquinolin-3-yl)methanimine Oxide]
Brain damage (total infarct volume) compared with vehicle ([1]; 1.5 mg/kg and 2.5 mg/kg i.v.): significantly reduced brain damage
Edema volume compared with vehicle ([1]; 1.5 mg/kg and 2.5 mg/kg i.v.): reduced
Brain damage (total infarct volume) compared with vehicle ([1]; 4 mg/kg i.v.): not at 4 mg/kg
Neuroprotective effect (neuronal death and neuronal apoptosis assays) [2]: significant neuroprotective effect
Y maze arm entries (exploratory activity) [3]: higher number of new entries
Y maze alternations (triads completed), spatial recognition ([3]; vehicle 5.0, control 15.75): 7.8
Percentage of animals exploring the novel arm as a first choice (spatial memory) ([3]; vehicle 17%, control 75%): 67%
